# Measurements published in patent US20260356803A1, “Nicotinamide derivatives” (Board of Regents, The University of Texas System, priority 2024, published 2026).
# How the values were obtained:
# [1] = test system: human MPNST cell line S462; assay: S462 cell viability (CellTiter-Glo, 72 h); type: cell-based; details: 10% FBS Nam-free DMEM; for rescue by nicotinamide: comparison of vacor, 3-AP, tiazofurin and 9
# Source text: This similarity, in addition to the scaffold's particular sensitivity to modifications around the pyridinyl ring led us to hypothesize that the activity of compounds 1 and 9 may depend on the concentration of Nam in the media. To test this hypothesis, we analyzed the activity of both compounds in media supplemented with increasing concentrations of Nam. […] Given that Nam inhibited compound activity, we considered Nam concentrations in basal culture conditions (DMEM supplemented with 10% fetal bovine serum or FBS) as compared to physiological levels. Nam levels in human serum are estimated to be in the 4 μM range.^5 In contrast, DMEM alone contains […] of Nam and the concentration in 10% FBS is expected to range between 0.574-1.56 μM.^6 To more closely reflect physiologic levels of Nam, we evaluated the activity of these compounds in cells grown in DMEM lacking Nam (Nam-free DMEM), so that the only exogenous Nam derives from 10% FBS. […] These observations indicate that the potency of these compounds is in the nanomolar range when tested in the presence of physiological levels of Nam.
# We thus re-assessed the structure activity relationship of compound 21 analogs in Nam-free DMEM supplemented with or without 100 μM Nam (see appendix below: Synthesis, characterization and activity of micromolar and nanomolar active nicotinamide derivatives). […] Particularly notable, even in Nam-depleted conditions, all active analogs retained the same 3-pyridinyl ring as Nam, reinforcing the relationship between structural resemblance to Nam and compound efficacy.
# In 96-well assay plates (Corning #2903), 2,000 cells were plated per well in 100 μL of medium and allowed to adhere overnight. The next day, compounds or Nam suspended in DMSO were dispensed to the assayed wells using a D300e Digital Dispenser (Tecan). All wells were normalized to 0.5% DMSO. 72 hours after incubation at 37 °C in 5% CO2, cell viability was assayed using an ATP-based luminescent viability assay, CellTiter-Glo (Promega #G8462). CellTiter-Glo substrate was mixed 1:1 with phosphate-buffered saline (PBS) supplemented with 1% Triton X-100, and 40 μL of this mixture was added to the assay wells. After the plates were shaken on a microplate shaker for 10 minutes at room temperature, luminescence was recorded using a Synergy 2 Microplate Reader or Cytation 5 plate reader (BioTek). In Prism 9 software (GraphPad), ten-point dose response curves were plotted with baseline-correction to the vehicle control well, and IC50 values were calculated by curve fitting using asymmetric (five parameter), least squares fit.
# IMPDH = assay: Guanosine co-titration rescue; type: cell-based; details: guanosine co-titrated
# Source text: (§1) Given that vacor, 3-AP, and compound 21 are all metabolized to toxic, NAD-like derivatives through NAMPT and NMNAT, we hypothesized that their anti-cancer activity may also depend on SARM1. To test this, we compared the toxic effects of vacor, 3-AP, and 9 in either wild type cells or cells in which we used CRISPR to silence SARM1. […] These observations highlight that even though these different scaffolds are toxified through the same mechanism, the resulting metabolites may have different activities. We next co-titrated guanosine, which is known to rescue tiazofurin by bypassing IMPDH in guanylate synthesis, with each of the above small molecules. […] To test this hypothesis, we set up in vitro reactions with different combinations of 9, NAMPT and NMNAT. After incubation, metabolites were extracted, reconstituted in aqueous solution and then co-incubated with an established IMPDH2 enzyme assay.
# SARM1 = assay: Cytotoxicity in SARM1-knockout versus wild type cells; type: cell-based; details: SARM1-knockout vs wild type
# Source text: as §1
# [2] = test system: NMNAT1 or alcohol dehydrogenase; assay: Counter screen with NMN in place of NAM; type: biochemical; details: role: inhibitor; 50 μM NMN substituted for NAM
# Method: NAMPT activity was measured using a coupled-enzyme assay previously described [Revollo, 2014]. Briefly, reactions consisting of 50 mM Tris pH 8, 0.4 mM PRPP, 2.5 mM ATP, 12 mM MgCl2, 0.02% BSA, 1 μM NAMPT, 77 nM NMNAT1, 10 mM semicarbazide, 30 μg/ml alcohol dehydrogenase were set up in a 384-well plate (50 μl/well). […] The reactions were started by addition of 50 μM NAM. Fluorescence due to NADH formation by alcohol dehydrogenase was measured in a BioTek Cytation 5 plate reader (Agilent, USA) set up for excitation at λ=340 nm and detection of emission at λ=460 nm. To counter screen for NMNAT1 or alcohol dehydrogenase inhibition, the assay was set up above but substituting 50 μM NMN (substrate for NMNAT1) for NAM. No inhibition of was observed under these conditions.
SMILES,toxicity to S462 [1],rescue by nicotinamide [1],guanosine rescue of toxicity (IMPDH),sensitivity of SARM1-knockout cells (SARM1),inhibition in counter screen [2],resistance of SARM1-knockout cells (SARM1)
"CC(=O)c1cccnc1 [Compound 3-AP, 3-acetylpyridine, reference compound]",toxic to S462,rescued by nicotinamide,no rescue,equally sensitive,–,–
"O=C(/C=C/c1cccnc1)NCCCCC1CCN(C(=O)c2ccccc2)CC1 [FK866, reference compound]",–,–,–,–,No inhibition,–
"O=C(NCc1cccnc1)Nc1ccc([N+](=O)[O-])cc1 [vacor, reference compound]",toxic to S462,rescued by nicotinamide,no rescue,–,–,3 fold
